Data reported in US11840686B2, “Modulation of prekallikrein (PKK) expression” (Ionis Pharmaceuticals, Inc., priority 2013, dated 2023).
pIC50: −log10 of the molar value. Strand notation (5' to 3'): a small letter for the sugar, then the base; units joined by * are phosphorothioate-linked, units joined directly phosphodiester-linked; [ ] holds rarer units or linkages, { } end groups; capitals alone tell only the bases. e = 2'-O-(2-methoxyethyl) (MOE); k = constrained ethyl (cEt); [5mC] = 5-methylcytosine; d = 2'-deoxy (DNA)

What was measured:
human PKK mRNA [1] = test: Dose-dependent antisense inhibition of human PKK in HepaRG cells, 0.11-3.00 uM (Example 6); format: cell-based; settings: for percent inhibition of PKK mRNA, 0.11 μM / percent inhibition of PKK mRNA, 0.33 μM / percent inhibition of PKK mRNA, 1.00 μM / percent inhibition of PKK mRNA, 3.00 μM: electroporation, approx. 16 hours, relative to untreated control cells; for pIC50: 0.11-3.00 μM
Procedure: Cells were plated at a density of 20,000 cells per well and transfected using electroporation with 0.11 μM, 0.33 μM, 1.00 μM, and 3.00 μM concentrations of antisense oligonucleotide. After a treatment period of approximately 16 hours, RNA was isolated from the cells and PKK mRNA levels were measured by quantitative real-time PCR. Human PKK primer probe set RTS3454 was used to measure mRNA levels. PKK mRNA levels were adjusted according to total RNA content, as measured by RIBOGREEN®. The antisense oligonucleotides were tested in a series of experiments that had similar culture conditions.
The half maximal inhibitory concentration (IC50) of each oligonucleotide is also presented.

human PKK mRNA [2] = test: Antisense inhibition of human PKK mRNA in HepaRG cells, 1,000 nM, MOE/deoxy/cEt oligonucleotides (Example 3); format: cell-based; settings: HepaRG cells, electroporation with 1,000 nM antisense oligonucleotide, PKK mRNA by RT-PCR (RTS3454), relative to untreated control cells
Procedure, shortened: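 Readout is percent PKK mRNA reduction against untreated controls, by real-time PCR (RTS3454) adjusted for total RNA via RIBOGREEN. Oligonucleotides, phosphorothioate gapmers of 16 nucleosides with cEt, MOE and deoxy sugars, were delivered at 1,000 nM by electroporation to 20,000 HepaRG cells/well for roughly 24 h.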

[3] = Table 19, approximately 24 hours
[4] = approx. 24 hours, Table 25 experiment

Row | Substance | percent inhibition of PKK mRNA, 0.11 μM (human PKK mRNA [1]) | percent inhibition of PKK mRNA, 0.33 μM (human PKK mRNA [1]) | percent inhibition of PKK mRNA, 1.00 μM (human PKK mRNA [1]) | percent inhibition of PKK mRNA, 3.00 μM (human PKK mRNA [1]) | % inhibition (human PKK mRNA [2]; [3]) | pIC50 (human PKK mRNA [1]) | % inhibition (human PKK mRNA [2]; [4])
1 | 548109 (antisense eG*e[5mC]*kA*dT*d[5mC]*dT*dG*dA*dG*d[5mC]*dT*dT*dT*kT*k[5mC]*e[5mC]) [compound 548109] | 50% | 92% | 79% | 85% | 77% |  | 
2 | 548125 (antisense e[5mC]*eT*kA*dG*dA*d[5mC]*dT*d[5mC]*dT*dG*dG*dA*d[5mC]*kT*kG*e[5mC]) [compound 548125] | 33% | 50% | 81% | 73% | 89% | 6.52 | 
3 | 548128 (eA*eT*kT*dG*d[5mC]*d[5mC]*dT*dA*dG*dA*d[5mC]*dT*d[5mC]*kT*kG*eG; antisense) [compound 548128] | 14% | 29% | 49% | 66% | 55% | 5.96 | 
4 | 548147 (e[5mC]*eG*kT*d[5mC]*d[5mC]*dT*dT*dA*dG*dG*dA*dT*dG*k[5mC]*kA*eA; antisense) [compound 548147] | 59% | 94% | 80% |  | 81% |  | 
5 | 548155 (e[5mC]*eG*kT*dG*d[5mC]*dT*dG*dA*dA*dA*dG*d[5mC]*dG*kG*kG*e[5mC]; antisense) [compound 548155] | 49% | 50% | 70% | 81% |  | 6.52 | 76%
6 | 548170 (eA*eG*kT*dT*dG*d[5mC]*dG*dA*d[5mC]*d[5mC]*dT*d[5mC]*dG*k[5mC]*kA*eT; antisense) [compound 548170] | 0% | 8% | 26% | 65% |  | 5.70 | 68%
7 | 548174 (eT*e[5mC]*kT*d[5mC]*dA*dG*dT*dT*dG*d[5mC]*dG*dA*d[5mC]*k[5mC]*kT*e[5mC]; antisense) [compound 548174] | 20% | 18% | 29% | 62% |  | 5.70 | 68%
8 | 548180 (eT*e[5mC]*kA*dT*dG*dG*dA*dG*dA*dT*d[5mC]*dT*d[5mC]*kA*kG*eT; antisense) [compound 548180] | 11% | 59% | 71% | 88% |  | 6.40 | 79%
9 | 548195 (eT*eT*k[5mC]*dT*dG*d[5mC]*d[5mC]*dA*dA*d[5mC]*dA*dG*dT*kT*kT*e[5mC]; antisense) [compound 548195] | 5% | 23% | 61% | 76% |  | 6.10 | 84%
